In patent publication US20250289814A1, “COMPOUNDS AS PARP1 INHIBITIORS” (NINGBO NEWBAY TECHNOLOGY DEVELOPMENT CO., LTD., priority 2022, published 2025):
Like-named read-outs stand apart in the source and are kept apart here.

Assays:
DLD1-BRCA2−/− cells = assay: Cell proliferation assay in DLD1-BRCA2−/− cell lines (CellTiter-Glo, 7 days); type: cell-based
Method: BRCA2 (−/−) cells cultured in RPMI 1640+10% FBS were harvested and diluted to a density of 1×10^4 cells/mL and 2×10^4 cells/mL, respectively. Cells (40 μL/well) were seeded into 384-well cell culture plates. Plates were covered and incubated at 37° C., 5% CO2 overnight prior to the addition of test compounds or vehicle. The plates were then incubated at 37° C., 5% CO2 for 7 days. On day 8, the plates were removed from incubator and equilibrated at room temperature for 15 minutes. CellTiter-Glo (40 μL, at 1:1 to culture medium) is added into each well and the plates were placed at room temperature for 30 min. Luminescence was measured using an Envision plate reader. The resultant data were analysed as follows; where LC is culture medium without cells:
% inhibition values for different test compound concentrations were calculated and fitted to a four parameter logistic plot in order to determine the IC50 value using XLfit

[1] = Caco2 (A-B/B-A) permeability; type: in vitro ADME; settings: human; for efflux ratio at 120 min, 5 μM: Caco-2, pH 7.4, PappB-A/PappA-B, read-out: Caco2 efflux ratio (ER); for Papp A→B at 120 min, 5 μM: Caco-2, pH 7.4, apical-to-basolateral, read-out: Caco2 A-B apparent permeability (Papp); for Papp A→B at 120 min, 5 μM / Papp B→A at 120 min, 5 μM: HBSS pH 7.4, 120 min, 37° C.; for Papp B→A at 120 min, 5 μM: Caco-2, pH 7.4, basolateral-to-apical, read-out: Caco2 B-A apparent permeability (Papp)
Method: The apical-to-basolateral (A-B) and basolateral-to-apical (B-A) transport of 5 μM test compounds in HBSS (10 mM HEPES, pH 7.4) was measured across Caco-2 cell monolayers (cells sourced from American Type Culture Collection, Manassas, Virgina). Duplicate incubations were performed at approximately 37° C. for 120 min, with functionality of the test system confirmed using 5 μM propranolol and digoxin as control compounds. Aliquots (50 μL) from both apical and basolateral wells were transferred into two fresh 96-well plates and quenched with acetonitrile solution containing analytical internal standards. Samples were vortexed mixed, centrifuged and a 100 μL aliquot of the resulting supernatant mixed with an equal volume of ultra-pure water prior to analysis by UPLC-MS/MS. The concentrations of test compound and control compounds in the incubation medium of donor and receiver compartments at the beginning and the end of the incubation period were used to calculate the apparent permeability (Papp) from A-B and B-A directions. The efflux ratio (ER) was expressed as PappB-A/PappA-B. The integrity of the cell monolayers after 2 hours incubation was confirmed using the marker reagent Lucifer yellow.

Structure (SMILES) | IC50 (DLD1-BRCA2−/− cells; Homo sapiens, DLD-1, 168 h) | efflux ratio at 120 min, 5 μM [1] | Papp A→B at 120 min, 5 μM [1] | Papp B→A at 120 min, 5 μM [1] | IC50 (DLD1-BRCA2−/− cells)
CCc1cc2ncc([C@H](C)N3CC[C@@H](Oc4ccc(C(=O)NC)nc4)C3)cc2[nH]c1=O (single isomer, unassigned) [Compound 12, 5-(((R)-1-((enantiomer 1 or 2)-1-(7-ethyl-6-oxo-5,6-dihydro-1,5-naphthyridin-3-yl)ethyl)pyrrolidin-3-yl)oxy)-N-methylpicolinamide] | 0.0225 µM | 10.3 | 34.4 nm/s | 356 nm/s | 
CCc1cc2ncc(CN3CC(Oc4ccc(C(=O)NC)nc4)C[C@@H]3C)cc2[nH]c1=O (single isomer, unassigned) [Compound 22, 5-(((enantiomer 1 or 2, 5S)-1-((7-ethyl-6-oxo-5,6-dihydro-1,5-naphthyridin-3-yl)methyl)-5-methylpyrrolidin-3-yl)oxy)-N-methylpicolinamide] | > 1 µM |  |  |  | 
CCc1cc2ncc(CN3CC(Oc4ccc(C(=O)NC)nc4)C[C@@H]3C)cc2[nH]c1=O (single isomer, unassigned) [Compound 23, 5-(((enantiomer 1 or 2, 5S)-1-((7-ethyl-6-oxo-5,6-dihydro-1,5-naphthyridin-3-yl)methyl)-5-methylpyrrolidin-3-yl)oxy)-N-methylpicolinamide] |  |  |  |  | > 1 µM
CCc1cc2ncc(CN3CCC[C@@H](Oc4ccc(C(=O)NC)nc4)C3)cc2[nH]c1=O (single isomer, unassigned) [Compound 32, (enantiomer 1 or 2)-5-((1-((7-ethyl-6-oxo-5,6-dihydro-1,5-naphthyridin-3-yl)methyl)piperidin-3-yl)oxy)-N-methylpicolinamide] | > 1 µM |  |  |  | 
CCc1cc2ncc(CN3CCC[C@@H](Oc4ccc(C(=O)NC)nc4)C3)cc2[nH]c1=O (single isomer, unassigned) [Compound 33, (enantiomer 1 or 2)-5-((1-((7-ethyl-6-oxo-5,6-dihydro-1,5-naphthyridin-3-yl)methyl)piperidin-3-yl)oxy)-N-methylpicolinamide] |  |  |  |  | > 1 µM
CCc1cc2ncc(CN3CC[C@@H](N(C)c4ccc(C(=O)NC)nc4)C3)cc2[nH]c1=O (single isomer, unassigned; enantiomer 1) [Compound 16, (enantiomer 1)-5-((1-((7-ethyl-6-oxo-5,6-dihydro-1,5-naphthyridin-3-yl)methyl)pyrrolidin-3-yl)(methyl)amino)-N-methylpicolinamide] |  |  |  |  | > 1 µM
CCc1cc2ncc(CN3CC[C@@H](N(C)c4ccc(C(=O)NC)nc4)C3)cc2[nH]c1=O (single isomer, unassigned; enantiomer 2) [Compound 17, (enantiomer 2)-5-((1-((7-ethyl-6-oxo-5,6-dihydro-1,5-naphthyridin-3-yl)methyl)pyrrolidin-3-yl)(methyl)amino)-N-methylpicolinamide] |  | 9.14 | 36.4 nm/s | 333 nm/s | 0.195 µM
CCc1cc2ncc(CN3CCC(Oc4ccc(C(=O)NC)nc4)C3)cc2[nH]c1=O (centres unmarked) [Compound 9, 5-((1-((7-ethyl-6-oxo-5,6-dihydro-1,5-naphthyridin-3-yl)methyl)pyrrolidin-3-yl)oxy)-N-methylpicolinamide] | 0.0143 µM | 10.3 | 35.5 nm/s | 365 nm/s | 
CCc1cc2ncc(CN3CC(Oc4ccc(C(=O)NC)nc4)C3C)cc2[nH]c1=O (centres unmarked) [Compound 18, 5-((1-((7-ethyl-6-oxo-5,6-dihydro-1,5-naphthyridin-3-yl)methyl)-2-methylazetidin-3-yl)oxy)-N-methylpicolinamide] | > 1 µM |  |  |  | 
CCc1cc2ncc(CN3CC[C@@H](Oc4cnc(C(=O)NC)c(F)c4)C3)cc2[nH]c1=O [Compound 27, (R)-5-((1-((7-ethyl-6-oxo-5,6-dihydro-1,5-naphthyridin-3-yl)methyl)pyrrolidin-3-yl)oxy)-3-fluoro-N-methylpicolinamide] | 0.356 µM |  |  |  | 
CCc1cc2ncc(CN3CCC(N(C)c4ccc(C(=O)NC)nc4)CC3)cc2[nH]c1=O [Compound 31, 5-((1-((7-ethyl-6-oxo-5,6-dihydro-1,5-naphthyridin-3-yl)methyl)piperidin-4-yl)(methyl)amino)-N-methylpicolinamide] | > 1 µM | 8.81 | 35 nm/s | 309 nm/s | 
CCc1cc2ncc(CN3C4CC3CN(c3ccc(C(=O)NC)nc3)C4)cc2[nH]c1=O [Compound 36, 5-(6-((7-ethyl-6-oxo-5,6-dihydro-1,5-naphthyridin-3-yl)methyl)-3,6-diazabicyclo [3.1.1]heptan-3-yl)-N-methylpicolinamide] | > 1 µM |  |  |  | 
CCc1cc2ncc(CN3CC4CC3CN4c3ccc(C(=O)NC)nc3)cc2[nH]c1=O (centres unmarked) [Compound 37, 5-(5-((7-ethyl-6-oxo-5,6-dihydro-1,5-naphthyridin-3-yl)methyl)-2,5-diazabicyclo [2.2.1]heptan-2-yl)-N-methylpicolinamide] | > 1 µM | 18.8 | 16.1 nm/s | 302 nm/s | 
CCc1cc2ncc(CN3C4CCC3CN(c3ccc(C(=O)NC)nc3)C4)cc2[nH]c1=O [Compound 38, 5-(8-((7-ethyl-6-oxo-5,6-dihydro-1,5-naphthyridin-3-yl)methyl)-3,8-diazabicyclo [3.2.1]octan-3-yl)-N-methylpicolinamide] | > 1 µM |  |  |  | 
CCc1cc2ncc(CN3CC4CCC(C3)N4c3ccc(C(=O)NC)nc3)cc2[nH]c1=O [Compound 39, 5-(3-((7-ethyl-6-oxo-5,6-dihydro-1,5-naphthyridin-3-yl)methyl)-3,8-diazabicyclo [3.2.1]octan-8-yl)-N-methylpicolinamide] | > 1 µM |  |  |  | 

The remaining lines, values ahead:

IC50 (DLD1-BRCA2−/− cells; Homo sapiens, DLD-1, 168 h) | efflux ratio at 120 min, 5 μM [1] | Papp A→B at 120 min, 5 μM [1] | Papp B→A at 120 min, 5 μM [1] | IC50 (DLD1-BRCA2−/− cells) | Structure (SMILES)
0.3 µM |  |  |  |  | CCc1cc2ncc(CN3CC[C@@H](Cc4ccc(C(=O)NC)nc4)C3)cc2[nH]c1=O (single isomer, unassigned) [Compound 25, (enantiomer 1 or 2)-5-((1-((7-ethyl-6-oxo-5,6-dihydro-1,5-naphthyridin-3-yl)methyl)pyrrolidin-3-yl)methyl)-N-methylpicolinamide]
 |  |  |  | 0.192 µM | CCc1cc2ncc(CN3CC[C@@H](Cc4ccc(C(=O)NC)nc4)C3)cc2[nH]c1=O (single isomer, unassigned) [Compound 26, (enantiomer 1 or 2)-5-((1-((7-ethyl-6-oxo-5,6-dihydro-1,5-naphthyridin-3-yl)methyl)pyrrolidin-3-yl)methyl)-N-methylpicolinamide]
> 1 µM |  |  |  |  | CCc1cc2ncc(CN3CCCN(c4ccc(C(=O)NC)nc4)CC3)cc2[nH]c1=O [Compound 34, 5-(4-((7-ethyl-6-oxo-5,6-dihydro-1,5-naphthyridin-3-yl)methyl)-1,4-diazepan-1-yl)-N-methylpicolinamide]
> 1 µM |  |  |  |  | CNC(=O)c1ccc(N2CCCN(Cc3cnc4cc(C)c(=O)[nH]c4c3)CC2)cn1 [Compound 35, N-methyl-5-(4-((7-methyl-6-oxo-5,6-dihydro-1,5-naphthyridin-3-yl)methyl)-1,4-diazepan-1-yl) picolinamide]
0.181 µM | 8.32 | 42.9 nm/s | 357 nm/s |  | CCc1cc2ncc(CN3CC4CN(c5ccc(C(=O)NC)nc5)CC4C3)cc2[nH]c1=O (centres unmarked) [Compound 40, 5-(5-((7-ethyl-6-oxo-5,6-dihydro-1,5-naphthyridin-3-yl)methyl)hexahydropyrrolo [3,4-c]pyrrol-2(1H)-yl)-N-methylpicolinamide]
> 1 µM |  |  |  |  | CNC(=O)c1ccc(N2CC3CN(Cc4cnc5cc(C)c(=O)[nH]c5c4)CC3C2)cn1 (centres unmarked) [Compound 41, N-methyl-5-(5-((7-methyl-6-oxo-5,6-dihydro-1,5-naphthyridin-3-yl)methyl)hexahydropyrrolo[3,4-c]pyrrol-2(1H)-yl)picolinamide]
> 1 µM | 7.71 | 45.7 nm/s | 353 nm/s |  | CCc1cc2ncc(CN3CC4CCN(c5ccc(C(=O)NC)nc5)C4C3)cc2[nH]c1=O (centres unmarked) [Compound 42, 5-(5-((7-ethyl-6-oxo-5,6-dihydro-1,5-naphthyridin-3-yl)methyl)hexahydropyrrolo[3,4-b]pyrrol-1(2H)-yl)-N-methylpicolinamide]
0.215 µM |  |  |  |  | CNC(=O)c1ccc(O[C@@H]2CCN(Cc3cnc4cc(C)c(=O)[nH]c4c3)C2)cn1 [Compound 59, (R)-N-methyl-5-((1-((7-methyl-6-oxo-5,6-dihydro-1,5-naphthyridin-3-yl)methyl)pyrrolidin-3-yl)oxy)picolinamide]
